Experimental findings from patent US12492181B2, “Gem-disubstituted piperidine melanocortin subtype-2 receptor (MC2R) antagonists and uses thereof” (Crinetics Pharmaceuticals, Inc., priority 2019, dated 2025) are described below.

The structures appear in SMILES notation. pKi: −log10 of the molar value.

For the assay, the target named is T1, hMC2 receptor (crude hMC2R membranes from CRE-bla-CHO-K1 cells stably expressing hMC2 receptor and hMRAP accessory protein) (Homo sapiens, UniProt Q01718).
T1 construct: crude membrane fractions
T1 sequence (Q01718 whole entry): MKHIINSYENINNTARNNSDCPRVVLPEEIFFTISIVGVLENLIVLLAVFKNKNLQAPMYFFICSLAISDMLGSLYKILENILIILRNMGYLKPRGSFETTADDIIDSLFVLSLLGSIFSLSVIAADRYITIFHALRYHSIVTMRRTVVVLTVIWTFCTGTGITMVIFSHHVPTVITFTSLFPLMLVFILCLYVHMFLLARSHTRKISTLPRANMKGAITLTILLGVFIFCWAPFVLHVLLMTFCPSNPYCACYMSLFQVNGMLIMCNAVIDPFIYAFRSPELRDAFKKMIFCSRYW
T1 sequence (Q8TCY5 whole entry partner): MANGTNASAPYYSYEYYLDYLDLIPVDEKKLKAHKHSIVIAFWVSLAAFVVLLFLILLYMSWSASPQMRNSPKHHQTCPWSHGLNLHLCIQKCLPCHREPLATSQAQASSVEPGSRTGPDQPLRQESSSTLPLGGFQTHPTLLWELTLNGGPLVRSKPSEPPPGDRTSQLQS
Description: hMC2 membrane binding assay ([125I]ACTH (1-39) Tyr23, SPA). To be noted: displacement of 0.2 nM [125I]ACTH (1-39) Tyr23 from hMC2R membranes, 1.5 hours at room temperature; read-out: MC2R binding potency. Put shortly: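 Crude membranes from CRE-bla-CHO-K1 cells stably co-expressing hMC2R and hMRAP, premixed with WGA PVT SPA beads in pH 7.4 HEPES buffer (5 mM MgCl2, 1 mM CaCl2, 0.20% BSA, protease inhibitors). Compounds compete with [125I]ACTH(1-39) Tyr23, read by scintillation. Ki from non-linear regression.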
For the compound `Cc1ncncc1-c1ccc(C2(C(=O)N[C@@H]3CCN(C)C3)CCN(c3ccc(C(F)(F)F)cc3C#N)CC2)cn1` [Compound 1-105, 1-[2-cyano-4-(trifluoromethyl)phenyl]-4-[6-(4-methylpyrimidin-5-yl)pyridin-3-yl]-N-[(3R)-1-methylpyrrolidin-3-yl]piperidine-4-carboxamide], the pKi is 7.00 to 8.00. Regarding `Cc1sccc1-c1ccc(C2(C(=O)N[C@H]3CCN(C)C3)CCN(c3ccc(C(F)(F)F)cc3C#N)CC2)cn1` [Compound 1-122, 1-[2-cyano-4-(trifluoromethyl)phenyl]-N-[(3S)-1-methylpyrrolidin-3-yl]-4-[6-(2-methylthiophen-3-yl)pyridin-3-yl]piperidine-4-carboxamide], the pKi is over 8.00. Regarding `COc1ccccc1-c1ccc(C2(C(=O)NC[C@H]3CCN3C)CCN(c3ccc(C(F)(F)F)cc3C#N)CC2)cn1` [Compound 1-244, 1-[2-cyano-4-(trifluoromethyl)phenyl]-4-[6-(2-methoxyphenyl)pyridin-3-yl]-N-{[(2R)-1-methylazetidin-2-yl]methyl}piperidine-4-carboxamide], the pKi is over 8.00. With `COc1ccccc1-c1ccc(C2(NC(=O)OCCN(C)C)CCN(c3ccc(C(F)(F)F)cc3C#N)CC2)cn1` [Compound 2-57, 2-(dimethylamino)ethyl N-{1-[2-cyano-4-(trifluoromethyl)phenyl]-4-[6-(2-methoxyphenyl)pyridin-3-yl]piperidin-4-yl}carbamate] the figure was over 8.00; with `CCOc1ccccc1-c1ncc(C2(C(=O)NCCNC)CCN(c3ccc(C(F)(F)F)cc3Cl)CC2)cc1F` [Compound 1-292, 1-[2-chloro-4-(trifluoromethyl)phenyl]-4-[6-(2-ethoxyphenyl)-5-fluoropyridin-3-yl]-N-[2-(methylamino)ethyl]piperidine-4-carboxamide], over 8.00; with `CCOc1ncccc1-c1ccc(C2(C(=O)NCCN(C)C)CCN(c3ccc(C(F)(F)F)cc3F)CC2)cn1` [Compound 1-222, N-[2-(dimethylamino)ethyl]-4-{2′-ethoxy-[2,3′-bipyridin]-5-yl}-1-[2-fluoro-4-(trifluoromethyl)phenyl]piperidine-4-carboxamide], over 8.00. Consider `CCOc1ccccc1-c1ncc(C2(C(=O)NCCNC)CCN(c3ccc(C(F)(F)F)cc3F)CC2)cc1F` [Compound 1-290, 4-[6-(2-ethoxyphenyl)-5-fluoropyridin-3-yl]-1-[2-fluoro-4-(trifluoromethyl)phenyl]-N-[2-(methylamino)ethyl]piperidine-4-carboxamide], for which the pKi is over 8.00. With `C[C@@H](CN(C)C)NC(=O)C1(c2ccc(-c3cccn3C)nc2)CCN(c2ccc(C(F)(F)F)cc2C#N)CC1` [Compound 1-261, 1-[2-cyano-4-(trifluoromethyl)phenyl]-N-[(2S)-1-(dimethylamino)propan-2-yl]-4-[6-(1-methyl-1H-pyrrol-2-yl)pyridin-3-yl]piperidine-4-carboxamide] the figure was over 8.00; with `CCOc1ncccc1-c1ccc(C2(NC(=O)N3CC[C@@H](NC)C3)CCN(c3ccc(C(F)(F)F)cc3C#N)CC2)cn1` [Compound 2-21], over 8.00; with `CCOc1ccccc1-c1ccc(C2(C(=O)N[C@H]3CCN(C)C3)CCN(c3ccc(Cl)cc3Cl)CC2)cn1` [Compound 1-95, 1-(2,4-dichlorophenyl)-4-[6-(2-ethoxyphenyl)pyridin-3-yl]-N-[(3S)-1-methylpyrrolidin-3-yl]piperidine-4-carboxamide], over 8.00. With `COc1ccccc1-c1ccc(C2(C(=O)NC[C@@H]3CN(C)CCO3)CCN(c3ccc(C(F)(F)F)cc3C#N)CC2)cn1` [Compound 1-330, 1-[2-cyano-4-(trifluoromethyl)phenyl]-4-[6-(2-methoxyphenyl)pyridin-3-yl]-N-{[(2R)-4-methylmorpholin-2-yl]methyl}piperidine-4-carboxamide] the figure was 7.00 to 8.00.

In the case of `CCOc1ncccc1-c1ccc(C2(C(=O)N[C@@H](C)CN(C)C)CCN(c3ccc(C(F)(F)F)cc3C#N)CC2)cn1` [Compound 1-313, 1-[2-cyano-4-(trifluoromethyl)phenyl]-N-[(2S)-1-(dimethylamino)propan-2-yl]-4-{2′-ethoxy-[2,3′-bipyridin]-5-yl}piperidine-4-carboxamide], the pKi is over 8.00. Under `CN1CC[C@H](NC(=O)C2(c3ccc(-c4cccn4C)nc3)CCN(c3ccc(C(F)(F)F)cc3Cl)CC2)C1` [Compound 1-160, 1-[2-chloro-4-(trifluoromethyl)phenyl]-4-[6-(1-methyl-1H-pyrrol-2-yl)pyridin-3-yl]-N-[(3S)-1-methylpyrrolidin-3-yl]piperidine-4-carboxamide] stands over 8.00. For `CCOc1ncccc1-c1ncc(C2(C(=O)N[C@H]3CCN(C)C3)CCN(c3ccc(C(F)(F)F)nc3C#N)CC2)cc1F` [Compound 1-110, 1-[2-cyano-6-(trifluoromethyl)pyridin-3-yl]-4-{2′-ethoxy-3-fluoro-[2,3′-bipyridin]-5-yl}-N-[(3S)-1-methylpyrrolidin-3-yl]piperidine-4-carboxamide], the pKi is over 8.00. With `Cn1cccc1-c1ccc(C2(C(=O)NC[C@H]3CCCN3)CCN(c3ccc(C(F)(F)F)cc3C#N)CC2)cn1` [Compound 1-231, 1-[2-cyano-4-(trifluoromethyl)phenyl]-4-[6-(1-methyl-1H-pyrrol-2-yl)pyridin-3-yl]-N-{[(2R)-pyrrolidin-2-yl]methyl}piperidine-4-carboxamide] the figure was over 8.00; with `CNCCNC(=O)C1(c2cnc(-c3cccn3C)c(F)c2)CCN(c2ccc(C(F)(F)F)cc2Cl)CC1` [Compound 1-310, 1-[2-chloro-4-(trifluoromethyl)phenyl]-4-[5-fluoro-6-(1-methyl-1H-pyrrol-2-yl)pyridin-3-yl]-N-[2-(methylamino)ethyl]piperidine-4-carboxamide], over 8.00; with `CCOc1ncccc1-c1ccc(C2(C(=O)N[C@H]3CCN(C)C3)CCN(c3ccc(C#N)cc3C(F)(F)F)CC2)cn1` [Compound 1-38, 1-[4-cyano-2-(trifluoromethyl)phenyl]-4-{2′-ethoxy-[2,3′-bipyridin]-5-yl}-N-[(3S)-1-methylpyrrolidin-3-yl]piperidine-4-carboxamide], over 8.00. Under `CCOc1ccccc1-c1ccc(C2(C(=O)N[C@@H]3CCN(C)C3)CCN(c3ccc(C(F)(F)F)cc3C#N)CC2)cn1` [Compound 1-31, 1-[2-cyano-4-(trifluoromethyl)phenyl]-4-[6-(2-ethoxyphenyl)pyridin-3-yl]-N-[(3R)-1-methylpyrrolidin-3-yl]piperidine-4-carboxamide] stands over 8.00. Under `CCOc1ccccc1-c1ncc(C2(C(=O)N[C@@H]3CCN(C)C3)CCN(c3ccc(C(F)(F)F)cc3C#N)CC2)cc1F` [Compound 1-123, 1-[2-cyano-4-(trifluoromethyl)phenyl]-4-[6-(2-ethoxyphenyl)-5-fluoropyridin-3-yl]-N-[(3R)-1-methylpyrrolidin-3-yl]piperidine-4-carboxamide] stands over 8.00; under `COc1ccccc1-c1ccc(C2(C(=O)NC[C@@H]3C[C@@H](F)CN3)CCN(c3ccc(C(F)(F)F)cc3C#N)CC2)cn1` [Compound 1-247, 1-[2-cyano-4-(trifluoromethyl)phenyl]-N-{[(2S,4R)-4-fluoropyrrolidin-2-yl]methyl}-4-[6-(2-methoxyphenyl)pyridin-3-yl]piperidine-4-carboxamide], over 8.00.
